{"source": "patent US9795689B2", "about": "“Crosslinked polymer nano-assemblies and uses thereof” (University of Massachusetts, priority 2012, dated 2017)", "origin": "cited, not measured here"}
{"smiles": "C=C(C)C(=O)OCCN(C(C)C)C(C)C", "note": "[DPA, 2-(diisopropylamino)ethyl methacrylate]", "values": [{"measurement": "pKa of the protonated form of the amine", "result": "around 6.2"}]}
